# Key:
# [1] = test system: Staphylococcus aureus Newbould 305 (ATCC 29740); assay: S. aureus mouse mastitis model (MMM), intramammary treatment; format: in vivo, lactating CD-1 mice; conditions: for Median CFU log10: glands harvested 18 h after inoculation
# Description: The mice were treated intramammarily (IMAM) with enrofloxacin, fosfomycin and a combination of enrofloxacin and fosfomycin as detailed in Table 1 four hours after inoculation. Each treatment group contained at least 3 mice (6 glands). Fourteen hours later (18 hours after inoculation) mice were sacrificed, mammary glands were harvested and the CFU content evaluated by plating 10-fold serial dilutions of mammary gland homogenates. The CFU content was expressed as log10 count. The detection limit was 200 CFU/g of gland. Glands with less than 200 CFU/g were regarded as cleared of S. aureus (see Table 1).
# For each treatment group median log10 reductions of CFU were determined by subtracting the median log10 CFU value of the respective group from the median log10 CFU value of the untreated control group.
# [2] = test system: S. aureus; format: cell-based, Staphylococcus aureus; conditions: single compound
# Source text: (§1) The mutant prevention concentration (MPC) is the drug concentration that blocks the growth of the least susceptible, single-step mutant. Above this concentration, cell growth requires the presence of two or more resistance mutations. Since two concurrent mutations are expected to arise rarely, resistance is expected to develop rarely when drug concentrations are kept above the MPC. For further information regarding the MPC, it is by way of example referred to Drlica, K. (2003). The mutant selection window and antimicrobial resistance. Journal of Antimicrobial Chemotherapy, 52(1), 11-17; and to Blondeau, J. M. (2009). New concepts in antimicrobial susceptibility testing: the mutant prevention concentration and mutant selection window approach. Veterinary dermatology, 20(5-6), 383-396.
# [3] = test system: Staphylococcus aureus; assay: Field trial, dairy cattle with subclinical mastitis; format: in vivo; conditions: 400 mg cefazolin and/or 1000 mg fosfomycin per quarter, six times at 12 h interval; for Cure rate of S. aureus infection / Cure rate of S. aureus infection (cured quarters/treated quarters): paraffin based ointment, milk samples 3 and 4 weeks after treatment
# Description: In another field trial, dairy cattle with subclinical mastitis, i.e. persistent, chronic udder infections caused by Staphylococcus aureus, were treated with either cefazolin, fosfomycin or a combination of both compounds. […] The affected quarters were treated with this ointment six consecutive times with an interval of 12 hours between each application. […] Following treatment, the level of udder inflammation, as measured by the Somatic Cell Count in the milk samples post treatment, was lower in the udders treated with the cefazolin-fosfomycin combination (46% of milk samples with a SCC lower than 300,000 cells/mL) than in udders treated with cefazolin alone (30% of milk samples with a SCC lower than 300,000 cells/mL) or with fosfomycin alone (24% of milk samples with a SCC lower than 300,000 cells/mL).
# [4] = test system: Streptococus uberis, Staphylococus aureus, Escherichia coli, other streptococci and mixed infections; assay: Field study, dairy cattle with clinical mastitis; format: in vivo; conditions: 400 mg cefazolin and/or 1000 mg fosfomycin per quarter, paraffin based ointment, three times at 24 h interval; milk samples 1-3 weeks after treatment
# Description: In a first field-study, dairy cattle with clinical mastitis were treated under field conditions with either cefazolin, fosfomycin or a combination of both compounds. […] The diseased quarters were treated with this ointment three consecutive times with an interval of 24 hours between each application. When a milk sample was taken from the diseased udder quarters before the treatment for the diagnosis of mastitis infection, pathogenic bacteria typical of clinical mastitis were isolated, i.e. Streptococus uberis, Staphylococus aureus, Escherichia coli, other streptococci and mixed infections of the aforementioned species. […] Diseased udder quarters were considered cured when the clinical symptoms of mastitis had disappeared within one week without requiring a new antibiotic treatment and when the causative pathogenic bacterium, found in the diagnostic milk sample shortly before treatment, could not be isolated from any of the milk samples taken from one to three weeks following treatment. The cure rate of mastitis infection was higher in the udder quarters treated with the combination ointment (cefazolin together with fosfomycin), i.e. 17/38 (45%), than in the quarters treated with the ointment containing cefazolin alone ( 11/35, 31%) or fosfomycin alone ( 13/37, 35%).
# [5] = test system: E. coli; format: cell-based, Escherichia coli; conditions: single compound
# Source text: as §1
# [6] = dose 100 μg IMAM, listed as enrofloxacin
SMILES,Cleared glands % (less than 200 CFU/g) ([1]; dose 100 μg IMAM),"log10 CFU reduction (median, vs untreated control) ([1]; dose 100 μg IMAM) [log10]",MPC against S. aureus [2] [µg/mL],Cure rate of S. aureus infection [3] [%],Cure rate of S. aureus infection (cured quarters/treated quarters) [3],"Cured quarters with SCC returned to normal (lower than 300,000 cells per mL) [3] [%]","Cured quarters with SCC returned to normal (lower than 300,000 cells per mL), quarters/treated quarters [3]","Milk samples post treatment with a SCC lower than 300,000 cells/mL [3] [%]",Cure rate of mastitis infection [4] [%],Cure rate of mastitis infection (cured quarters/treated quarters) [4],MPC against E. coli [5] [µg/mL],other results
"CCN1CCN(c2cc3c(cc2F)c(=O)c(C(=O)O)cn3C2CC2)CC1 [Enrofloxacin, enrofloxacin]",0%,1.41,3,–,–,–,–,–,–,–,–,"Median CFU log10 ([1]; dose 100 μg IMAM 4 h after inoculation): 6.8 CFU log10; Cleared glands % (less than 200 CFU/g) [1, 6]: does not eliminate the infection; log10 CFU reduction (median, vs untreated control) [1, 6]: 1.4 log10"
"C[C@@H]1O[C@@H]1P(=O)(O)O [Fosfomycin, [(2R,3S)-3-methyloxiran-2-yl]phosphonic acid]",does not eliminate the infection,2.0,1500,57,27/47,19,9/47,24,35,13/37,200,"Cleared glands % (less than 200 CFU/g) ([1]; dose 500 μg IMAM): 0%; log10 CFU reduction (median, vs untreated control) ([1]; dose 500 μg IMAM): 3.3 log10; Median CFU log10 ([1]; dose 500 μg IMAM 4 h after inoculation): 5.0 CFU log10; Cleared glands % (less than 200 CFU/g) ([1]; dose 500 μg IMAM, listed as fosfomycin): does not eliminate the infection; Cleared glands % (less than 200 CFU/g) ([1]; dose 1000 μg IMAM): 0%; log10 CFU reduction (median, vs untreated control) ([1]; dose 1000 μg IMAM): 5.1 log10; Median CFU log10 ([1]; dose 1000 μg IMAM 4 h after inoculation): 3.2 CFU log10; Cleared glands % (less than 200 CFU/g) ([1]; dose 1000 μg IMAM, listed as fosfomycin): does not eliminate the infection"
CC1(C)S[C@@H]2[C@H](NC(=O)[C@H](N)c3ccc(O)cc3)C(=O)N2[C@H]1C(=O)O [amoxicillin],does not eliminate the infection,1.6,–,–,–,–,–,–,–,–,–,–
Cc1nnc(SCC2=C(C(=O)O)N3C(=O)[C@@H](NC(=O)Cn4cnnn4)[C@H]3SC2)s1 [cefazolin],does not eliminate the infection,5.1,1.25,46,20/43,23,10/43,30,31,11/35,64,"Cleared glands % (less than 200 CFU/g) ([1]; dose 50 microgram IMAM): does not eliminate the infection; log10 CFU reduction (median, vs untreated control) ([1]; dose 50 microgram IMAM): 4.5 log10"
CC[C@@H]1CCN[C@H](C(=O)N[C@@H]([C@H]2O[C@H](SC)[C@H](O)[C@@H](O)[C@H]2O)[C@H](C)Cl)C1 [pirlimycin],–,–,2,–,–,–,–,–,–,–,–,"Cleared glands % (less than 200 CFU/g) ([1]; dose 10 microgram IMAM): does not eliminate the infection; log10 CFU reduction (median, vs untreated control) ([1]; dose 10 microgram IMAM): 3.3 log10"
